Test results: US9364462B2, “Alpha-1-adrenergic receptor agonist therapy” (The Regents of the University of California, priority 2012, dated 2016)

Key:
[1] = Learning and memory, Barnes maze, long-term treatment of normal WT mice; type: in vivo, mouse; settings: 9 months, 10 mg/L in drinking water
Description: FIG. 18. Long-term alpha-1A agonist therapy improves learning and memory. Normal WT mice were treated 9 months with the alpha-1A agonist cirazoline, 10 mg/L in drinking water, and learning and memory were tested versus control mice using the Barnes maze. Left. […] Right. […] These studies treated mice for long periods with cirazoline, adding it to the drinking water. Mice treated with cirazoline had improvements in tests of learning and of memory (FIG. 18). […] 9 months in a mouse is equivalent to 18 to 27 years in a human.

cardiac myocytes = experiment: Cardiac cell protective and adaptive (anabolic) effects in vitro, comparison of alpha-1-agonists; type: cell-based

For `c1ccc(C2CC2)c(OCC2=NCCN2)c1` [cirazoline], the “memory trials (errors made)” value [1] was “Findings were similar”, the “errors in learning trials” value ([1]; vs control mice) was “fewer errors” and the “time to solve in learning trials” value ([1]; vs control mice) was “faster to solve”. The “potency and efficacy relative to A61603” value (cardiac myocytes; cardiac myocytes, FIG. 1-2) was “a good bit less potent and efficacious” and the “specificity, potency, efficacy in stimulating anabolic effects in cells relative to A61603” value (cardiac myocytes; cells (e.g. cardiac myocytes)) was “not as specific, potent, or efficacious as A61603”.
